We go through 1 compound from publication PMC4980838 (European journal of medicinal chemistry, 2010).

What is called IC50 is the concentration that gives 50% inhibition.

For assay [1], the system named is human HT-29 colon tumor cell line. In words: Tumor cell growth inhibition, HT-29. In kind it is cell-based. The note with it: HT-29, 72 h, read-out: Growth inhibition IC50.
In assay [2] the target is recombinant human PDE5 enzyme (Homo sapiens, UniProt O76074). Kind of assay: Phosphodiesterase assay. In kind it is biochemical.

Turning to `COC(=O)[C@@H]1Cc2c([nH]c3ccccc23)[C@@H](c2ccccc2Br)N1C(=O)CCl` [Compound 6d, Methyl (1R,3S)-1-(2-bromophenyl)-2-(2-chloroacetyl)-2,3,4,9-tetrahydro-1H-β-carboline-3-carboxylate], the IC50 in assay [1] stood at 1.6 µM. Also, in assay [2], the “PDE5 inhibitory activity (in words)” value is “did not show PDE5 inhibitory activity”.
